According to patent publication US20150366962A1 (priority 2014, published 2015):

Legend:
[1] = tested on: Mouse bone marrow-derived dendritic cells (mBMDCs); assay: Antigen (OVA-Alexa Fluor 488) uptake in mouse BMDCs, flow cytometry; assay type: cell-based, C57BL/6 mice; settings: 10 μM 1Z105 or MPLA overnight, 37° C., OVA-488 last 30 min
Experimental: (A) Upregulation of antigen uptake by 1Z105. BMDCs prepared from C57BL/6 mice were incubated with 10 μM 1Z105 or MPLA overnight. Antigen, Alexa Fluor 488-conjugated ovalbumin (OVA-488), was added to the culture for the last 30 min of incubation. The cells were washed and stained for CD11c. OVA-associated dendritic cells in the CD11c^hi population were evaluated by flow cytometry. Cells incubated at 4° C. served as a negative control. (B and C) Enhancement of expression of costimulatory molecules by 1Z105.WT (B) or Tlr4^−/− (C) BMDCs were incubated with 1Z105 (10 or 2 μM) or MPLA (0.04 μg/ml) overnight, and expression of CD40 and CD86 was assessed by flow cytometric assay. (D) 1Z105 promotes antigen cross-presentation. Wild-type BMDCs were incubated with 1Z105 (2 μM) overnight, and OVA (10 μg/ml) was added to the culture for the last 4 h of incubation. […] OT-1 T-cell proliferation was monitored by flow-cytometric assay. […] Cytokine release of IL-1β, IL-6, IL-8, IL-12p70, and TNF-α was determined by Luminex bead assay. […]
Mouse bone marrow-derived dendritic cells (mBMDCs) were prepared from wild type or Tlr4^−/− C57BL/6 mice. mBMDCs (10^5 cells per well) were plated in 96-well plates in 200 μl of complete RPMI 1640. […] The cells were stained for CD11c, and OVA uptake and expression of CD40 and CD86 in the CD11chi-gated population was determined by flow cytometry.

BMDC (C57BL/6) = assay: IL-6 and IP-10 release by BMDC with 1V270 with or without 1Z105; assay type: cell-based, C57BL/6 mice; settings: 1V270 0.025 or 0.1 μM with 1Z105 5 μM
Experimental: To evaluate whether 1Z105 can enhance the proinflammatory cytokine induction by 1V270, BMDC (C57BL/6) were incubated with 1V270 (0.025, or 0.1 μM) in the presence or absence of 1Z105 (5 μM). […] Antigen presenting function was evaluated using splenocytes prepared from OVA MHC class II-restricted alpha beta T cell receptor (TCR) transgenic mice OT-II. Splenocytes were cultured with OVA peptide (OVA323-339) for 3 days with 1Z105, or 1V270 alone or in combination. The frequency of intracellular (IC) IFNγ expressing CD4 T cells was determined by flow cytometric assay. Treatment with 1V270 alone increased intracellular IFNγ (3.7 and 6.8% by 25 and 100 nM, respectively).

[2] = in EV3 and EV7; requested 0.22-0.44 mg/mL
OVA = OVA immunization: splenocyte IFN-γ ELISA and ELISpot; assay type: in vivo, C57BL/6 mice
Experimental: AddaVax and vehicle were used as controls. The sera were collected on day 35, and the serum IgG1 (A) and IgG2c (B) levels were tested. (C) Splenocytes were incubated with OVA (100 μg/ml) for 3 days, and IFN-γ levels in the culture supernatants were determined by ELISA. Data were pooled from three experiments showing similar trends. (D and E) Myd88^−/−, Tri^flps/lps, or wild-type mice (n=8/group) were i.m. immunized with ovalbumin mixed with the indicated adjuvant or vehicle in a 50-μl volume on days 0 and 14. On day 35, splenocytes were incubated with OVA MHC class I peptides (OVA257-264) (D) or class II peptides (OVA323-339) (E) overnight, and IFN-γ-producing cells were detected by ELISpot assay. The data shown are pooled from 2 or 3 independent experiments showing similar trends. *, P 0.05 compared to no adjuvant (A to C) or the WT (D and E) by one-way ANOVA with Dunnett's post hoc testing.
Vehicle (10% DMSO in saline) and AddaVax (1:1 ratio with antigen in saline) were used as controls. Sera were collected on days 0, 7, 14, 21, 28, and 35. Mice were sacrificed on day 35, and the spleens were harvested. Approximately 2.5×10^6/ml spleen cells was dispersed into round-bottom microtiter plates in triplicate in a total volume of 200 μl complete RPMI 1640 and restimulated with either 100 μg/ml OVA or medium alone. The cultures were then incubated at 37° C., 5% CO2, and the supernatants were harvested after 72 h. The levels of gamma interferon (IFN-γ) in the culture supernatants were measured by ELISA (BD Bioscience, San Jose, Calif.) according to the manufacturer's instructions. In parallel, splenocytes were stimulated with 10 μg/ml OVA class I (OVA257-264) or class II (OVA323-339) peptide on anti-IFN-γ antibody-coated enzyme-linked immunospot (ELISpot) plates for 18 h. The results are reported as numbers of IFN-spot-forming cells (SFC) per million cells as described below.

| Compound | OVA-associated CD11chi BMDCs (antigen uptake) [1] | IL-6 release induced by 1V270 (BMDC (C57BL/6)) | IP-10 release induced by 1V270 (BMDC (C57BL/6)) | solubility of 1V270 [2] | dependence of increased antigen-specific T cell frequencies on MyD88 and TRIF (OVA; Myd88-/- and TrifLps2/Lps2 versus wild-type mice) | frequencies of IFN-γ-releasing T cells specific for OVA class I peptide (ELISpot) (OVA; OVA257-264, day 35 splenocytes) | frequencies of IFN-γ-releasing T cells specific for OVA class II peptide (ELISpot) (OVA; OVA323-339, day 35 splenocytes) | OVA-specific IFN-γ release by T cells restimulated ex vivo (OVA; splenocytes, OVA 100 μg/ml, 3 days, ELISA) |
| --- | --- | --- | --- | --- | --- | --- | --- | --- |
| Cn1c2ccccc2c2nc(SCC(=O)NC3CCCCC3)n(-c3ccccc3)c(=O)c21 [Compound 1Z105] | increased number | significantly enhanced | significantly enhanced |  |  |  |  |  |
| CCCCCCCCC=CCCCCCCCC(=O)OCC(COP(=O)(O)OCCNC(=O)c1ccc(Cn2c(=O)[nH]c3c(N)nc(OCCOC)nc32)cc1)OC(=O)CCCCCCCC=CCCCCCCCC (centres unmarked) [Compound 1V270] |  |  |  | achieved to the requested concentration | partially dependent upon the MyD88 and TRIF pathways | increased frequencies | increased frequencies | promoted OVA-specific IFN-γ release |
